# Measured values from ChEMBL document CHEMBL5537122, “Design, synthesis, and biological evaluation of 4-(2-fluorophenoxy)-7-methoxyquinazoline derivatives as dual EGFR/c-Met inhibitors for the treatment of NSCLC” (Eur J Med Chem, 2024).
# What was measured:
# PC-9 = test: Antiproliferative activity against human PC-9 cells overexpressing c-Met and EGFR assessed as reduction in cell viability incubated for 72 hrs by MTT assay; format: functional, cell-based; settings: PC-9, 72 h
# [1] = target: Epidermal growth factor receptor (Homo sapiens, UniProt P00533); test: biochemical
# Description: Inhibition of N-terminal GST tagged human recombinant EGFR (695 to end residues) expressed in baculovirus infected Sf9 cells using Poly (4:1 Glu, Tyr) as substrate incubated for 60 mins in presence of ATP by ADP-Glo luminescent assay
# NCI-H1975 = test: Antiproliferative activity against human NCI-H1975 cells overexpressing c-Met and EGFR assessed as reduction in cell viability incubated for 72 hrs by MTT assay; format: functional, cell-based; settings: NCI-H1975, 72 h
# [2] = target: Hepatocyte growth factor receptor (Homo sapiens, UniProt P08581); test: biochemical
# Description: Inhibition of N-terminal GST tagged human recombinant c-Met (956 to end residues) expressed in baculovirus infected Sf9 cells using Poly (4:1 Glu, Tyr) as substrate incubated for 60 mins in presence of ATP by ADP-Glo luminescent assay
# A549 = test: Antiproliferative activity against human A549 cells overexpressing c-Met and EGFR assessed as reduction in cell viability incubated for 72 hrs by MTT assay; format: functional, cell-based; settings: A549, 72 h
# [3] = target: Epidermal growth factor receptor (Homo sapiens, UniProt P00533, L858R); test: biochemical
# Epidermal growth factor receptor (Homo sapiens, UniProt P00533, L858R), sequence (P00533 25-1210 L858R limits assumed): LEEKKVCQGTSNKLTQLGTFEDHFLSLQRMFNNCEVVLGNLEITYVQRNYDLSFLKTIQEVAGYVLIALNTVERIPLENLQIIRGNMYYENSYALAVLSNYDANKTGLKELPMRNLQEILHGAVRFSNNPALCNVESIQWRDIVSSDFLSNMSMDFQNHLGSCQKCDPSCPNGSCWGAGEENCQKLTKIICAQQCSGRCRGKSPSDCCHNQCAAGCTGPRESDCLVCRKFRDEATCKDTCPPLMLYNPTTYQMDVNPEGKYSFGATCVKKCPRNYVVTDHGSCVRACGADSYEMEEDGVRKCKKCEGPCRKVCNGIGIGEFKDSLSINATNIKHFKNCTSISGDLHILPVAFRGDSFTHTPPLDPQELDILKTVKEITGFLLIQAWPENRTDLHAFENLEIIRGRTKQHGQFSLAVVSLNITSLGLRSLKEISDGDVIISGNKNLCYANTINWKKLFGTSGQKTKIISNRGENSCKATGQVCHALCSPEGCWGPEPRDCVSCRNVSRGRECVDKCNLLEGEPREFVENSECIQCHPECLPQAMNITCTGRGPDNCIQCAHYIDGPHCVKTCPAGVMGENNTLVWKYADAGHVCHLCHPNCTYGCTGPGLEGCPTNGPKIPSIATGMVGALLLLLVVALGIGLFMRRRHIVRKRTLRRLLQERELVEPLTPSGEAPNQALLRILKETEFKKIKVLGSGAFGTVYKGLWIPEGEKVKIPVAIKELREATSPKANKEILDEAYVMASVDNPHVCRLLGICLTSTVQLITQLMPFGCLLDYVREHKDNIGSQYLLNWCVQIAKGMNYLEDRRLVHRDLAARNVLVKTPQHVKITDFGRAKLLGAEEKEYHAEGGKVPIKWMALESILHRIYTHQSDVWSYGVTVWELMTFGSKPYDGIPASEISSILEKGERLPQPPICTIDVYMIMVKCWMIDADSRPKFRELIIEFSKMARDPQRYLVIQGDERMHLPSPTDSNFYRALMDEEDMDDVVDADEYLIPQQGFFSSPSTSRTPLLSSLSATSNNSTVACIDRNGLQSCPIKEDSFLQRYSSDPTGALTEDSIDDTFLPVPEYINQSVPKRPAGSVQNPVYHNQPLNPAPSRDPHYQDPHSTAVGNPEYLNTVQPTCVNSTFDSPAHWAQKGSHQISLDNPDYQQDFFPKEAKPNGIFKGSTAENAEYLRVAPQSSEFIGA
# Hepatocyte growth factor receptor, sequence (P08581 whole entry): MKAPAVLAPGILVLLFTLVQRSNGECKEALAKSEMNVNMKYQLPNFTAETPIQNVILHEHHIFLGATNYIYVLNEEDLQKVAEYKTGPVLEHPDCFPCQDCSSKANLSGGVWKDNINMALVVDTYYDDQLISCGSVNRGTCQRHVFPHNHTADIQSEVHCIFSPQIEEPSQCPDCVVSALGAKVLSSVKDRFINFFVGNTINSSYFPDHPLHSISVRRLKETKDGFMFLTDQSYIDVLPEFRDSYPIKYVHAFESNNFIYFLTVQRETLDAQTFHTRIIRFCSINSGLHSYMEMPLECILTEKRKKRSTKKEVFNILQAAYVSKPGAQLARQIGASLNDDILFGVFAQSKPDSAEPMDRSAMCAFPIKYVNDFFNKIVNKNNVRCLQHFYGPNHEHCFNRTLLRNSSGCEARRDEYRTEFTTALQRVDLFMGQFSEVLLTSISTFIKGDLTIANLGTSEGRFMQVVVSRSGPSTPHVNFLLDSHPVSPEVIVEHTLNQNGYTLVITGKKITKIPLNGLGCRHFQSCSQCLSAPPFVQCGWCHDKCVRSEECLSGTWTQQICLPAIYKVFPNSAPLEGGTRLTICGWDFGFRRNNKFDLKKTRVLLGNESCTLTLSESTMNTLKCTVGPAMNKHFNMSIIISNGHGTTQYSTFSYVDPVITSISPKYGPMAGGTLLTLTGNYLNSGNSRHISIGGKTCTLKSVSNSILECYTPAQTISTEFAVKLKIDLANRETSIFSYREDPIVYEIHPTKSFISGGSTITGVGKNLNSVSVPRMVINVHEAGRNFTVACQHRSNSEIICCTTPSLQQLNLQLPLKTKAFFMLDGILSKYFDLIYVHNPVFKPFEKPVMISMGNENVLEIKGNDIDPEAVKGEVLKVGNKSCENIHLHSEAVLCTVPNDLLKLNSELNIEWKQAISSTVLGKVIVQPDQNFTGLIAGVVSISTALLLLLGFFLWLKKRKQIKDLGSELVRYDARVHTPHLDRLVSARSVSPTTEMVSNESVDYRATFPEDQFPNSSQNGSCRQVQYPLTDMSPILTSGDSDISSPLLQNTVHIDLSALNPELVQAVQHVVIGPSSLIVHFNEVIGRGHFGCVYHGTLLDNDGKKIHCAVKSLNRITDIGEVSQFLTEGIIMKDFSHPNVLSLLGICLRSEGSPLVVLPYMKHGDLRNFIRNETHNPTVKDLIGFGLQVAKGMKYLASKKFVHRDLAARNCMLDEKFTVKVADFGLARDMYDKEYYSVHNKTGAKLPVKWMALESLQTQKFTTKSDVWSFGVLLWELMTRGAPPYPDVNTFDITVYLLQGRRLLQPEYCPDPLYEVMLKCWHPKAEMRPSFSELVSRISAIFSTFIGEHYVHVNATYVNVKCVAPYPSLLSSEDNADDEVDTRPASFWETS
# Epidermal growth factor receptor (Homo sapiens, UniProt P00533), sequence (P00533 whole entry): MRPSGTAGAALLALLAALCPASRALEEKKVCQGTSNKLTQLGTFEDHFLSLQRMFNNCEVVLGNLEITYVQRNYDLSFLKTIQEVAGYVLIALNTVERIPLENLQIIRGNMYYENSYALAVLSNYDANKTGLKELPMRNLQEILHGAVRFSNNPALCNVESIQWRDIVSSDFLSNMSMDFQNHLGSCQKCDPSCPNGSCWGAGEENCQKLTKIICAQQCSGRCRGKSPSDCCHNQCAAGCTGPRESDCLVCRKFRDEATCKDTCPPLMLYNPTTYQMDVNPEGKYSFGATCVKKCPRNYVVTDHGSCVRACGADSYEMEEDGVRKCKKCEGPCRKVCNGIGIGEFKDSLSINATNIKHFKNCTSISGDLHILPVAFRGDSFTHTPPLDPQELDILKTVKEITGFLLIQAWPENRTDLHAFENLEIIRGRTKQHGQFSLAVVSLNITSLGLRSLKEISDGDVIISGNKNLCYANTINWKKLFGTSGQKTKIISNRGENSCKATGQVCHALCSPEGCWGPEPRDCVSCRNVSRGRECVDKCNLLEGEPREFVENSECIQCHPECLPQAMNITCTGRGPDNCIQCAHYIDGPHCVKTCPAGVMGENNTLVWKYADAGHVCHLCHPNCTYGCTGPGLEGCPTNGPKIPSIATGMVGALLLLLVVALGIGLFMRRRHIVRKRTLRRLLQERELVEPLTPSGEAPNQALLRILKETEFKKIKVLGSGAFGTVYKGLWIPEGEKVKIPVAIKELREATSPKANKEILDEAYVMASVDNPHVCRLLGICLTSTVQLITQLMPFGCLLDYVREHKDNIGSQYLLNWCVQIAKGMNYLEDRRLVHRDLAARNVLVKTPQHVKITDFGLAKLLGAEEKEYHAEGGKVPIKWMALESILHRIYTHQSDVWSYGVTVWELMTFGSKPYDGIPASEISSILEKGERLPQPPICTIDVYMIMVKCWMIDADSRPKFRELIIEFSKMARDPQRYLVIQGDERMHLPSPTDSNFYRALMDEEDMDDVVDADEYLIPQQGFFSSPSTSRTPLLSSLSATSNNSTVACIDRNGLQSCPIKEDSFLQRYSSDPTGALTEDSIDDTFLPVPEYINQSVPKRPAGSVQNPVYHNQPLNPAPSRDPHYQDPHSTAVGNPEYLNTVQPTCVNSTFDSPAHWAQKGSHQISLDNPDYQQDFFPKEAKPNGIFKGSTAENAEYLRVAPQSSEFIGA
Structure (SMILES),IC50 (PC-9) [µM],IC50 [1] [µM],IC50 (NCI-H1975) [µM],IC50 [2] [µM],IC50 (A549) [µM],IC50 [3] [µM]
COc1ccc(CCCC(=O)Nc2ccc(Oc3ncnc4cc(OC)c(NC(=O)CCC(C)C)cc34)c(F)c2)cc1,> 50,> 10,10.5,> 10,> 50,> 10
C/C=C/C(=O)Nc1cc2c(Oc3ccc(NC(=O)CCCc4ccsc4)cc3F)ncnc2cc1OC,1.63,> 10,> 50,1.39,21.7,> 10
CCC(=O)Nc1cc2c(Oc3ccc(NC(=O)NCCC4CCCCC4)cc3F)ncnc2cc1OC,> 50,4.69,2.94,0.143,2.43,> 10
C/C=C/C(=O)Nc1cc2c(Oc3ccc(NC(=O)n4c(=O)c(-c5ccccc5)c(C)n4C)cc3F)cccc2cc1OC,8.88,4.83,9.42,0.015,2.7,> 10
C=CC(=O)Nc1cc2c(Oc3ccc(NC(=O)c4sc(-c5ccccc5)nc4C)cc3F)cccc2cc1OC,2.33,0.173,2.4,0.0386,1.94,0.518
C=CC(=O)Nc1cc2c(Oc3ccc(NC(=O)NCCc4ccc(OC)c(OC)c4)cc3F)ncnc2cc1OC,2.48,2.35,11.4,0.114,6.7,4.18
C/C=C/C(=O)Nc1cc2c(Oc3ccc(NC(=O)c4c(-c5c(Cl)cccc5Cl)noc4C)cc3F)cccc2cc1OC,6.12,> 10,17.2,3.38,19.5,> 10
CCC(=O)Nc1cc2c(Oc3ccc(NC(=O)c4sc(-c5ccccc5)nc4C)cc3F)cccc2cc1OC,2.94,3.9,3.56,0.0706,2.35,> 10
C=CC(=O)Nc1cc2c(Oc3ccc(NC(=O)CCCc4ccsc4)cc3F)ncnc2cc1OC,0.99,> 10,4.72,0.693,5.14,> 10
C=CC(=O)Nc1cc2c(Oc3ccc(NC(=O)CCCc4ccc(OC)cc4)cc3F)ncnc2cc1OC,19.4,0.567,2.1,0.348,3.12,0.693
CCCC(=O)Nc1cc2c(Oc3ccc(NC(=O)CCCc4ccc(F)cc4)cc3F)ncnc2cc1OC,> 50,> 10,12,0.477,> 50,> 10
CCCCC(=O)Nc1cc2c(Oc3ccc(NC(=O)CCCc4ccc(F)cc4)cc3F)ncnc2cc1OC,> 50,> 10,41.2,0.533,> 50,> 10
C/C=C/C(=O)Nc1cc2c(Oc3ccc(NC(=O)CCCc4ccccc4)cc3F)ncnc2cc1OC,5.78,2.89,4.65,0.465,5.41,3.54
CCCC(=O)Nc1cc2c(Oc3ccc(NC(=O)n4c(=O)c(-c5ccccc5)c(C)n4C)cc3F)cccc2cc1OC,> 50,4.21,> 50,0.00411,10.2,> 10
CCCC(=O)Nc1cc2c(Oc3ccc(NC(=O)c4sc(-c5ccccc5)nc4C)cc3F)cccc2cc1OC,> 50,> 10,5.1,0.0719,8.15,> 10
CCCCC(=O)Nc1cc2c(Oc3ccc(NC(=O)CCCc4ccc(C)cc4)cc3F)ncnc2cc1OC,> 50,> 10,> 50,2,6.22,> 10
C/C=C/C(=O)Nc1cc2c(Oc3ccc(NC(=O)c4sc(-c5ccccc5)nc4C)cc3F)cccc2cc1OC,> 50,2.32,> 50,0.0964,44.2,> 10
CCCC(=O)Nc1cc2c(Oc3ccc(NC(=O)c4c(-c5c(Cl)cccc5Cl)noc4C)cc3F)cccc2cc1OC,> 50,> 10,> 50,5.93,> 50,> 10
CCCC(=O)Nc1cc2c(Oc3ccc(NC(=O)CCCc4ccccc4)cc3F)ncnc2cc1OC,9.31,2.65,4.96,0.316,7.66,4.65
C=CC(=O)Nc1cc2c(Oc3ccc(NC(=O)c4c(-c5c(Cl)cccc5Cl)noc4C)cc3F)cccc2cc1OC,6.73,–,4.9,1.77,4.57,–

Structure (SMILES),IC50 (PC-9) [µM],IC50 [1] [µM],IC50 (NCI-H1975) [µM],IC50 [2] [µM],IC50 (A549) [µM],IC50 [3] [µM]
COc1cc2ncnc(Oc3ccc(NC(=O)CCCc4ccccc4)cc3F)c2cc1NC(=O)CCC(C)C,33.7,> 10,13.7,1.48,> 50,> 10
CCC(=O)Nc1cc2c(Oc3ccc(NC(=O)CCCc4ccsc4)cc3F)ncnc2cc1OC,4.03,> 10,> 50,0.579,12.4,> 10
CCC(=O)Nc1cc2c(Oc3ccc(NC(=O)NCCc4ccc(OC)c(OC)c4)cc3F)ncnc2cc1OC,> 50,> 10,> 50,0.0905,> 50,> 10
CCCCC(=O)Nc1cc2c(Oc3ccc(NC(=O)CCCc4ccsc4)cc3F)ncnc2cc1OC,> 50,> 10,37.6,1.56,> 50,> 10
COc1cc2ncnc(Oc3ccc(NC(=O)CCCc4ccc(C)cc4)cc3F)c2cc1NC(=O)CCC(C)C,> 50,> 10,27.5,3.07,> 50,> 10
CCCC(=O)Nc1cc2c(Oc3ccc(NC(=O)CCCc4ccsc4)cc3F)ncnc2cc1OC,13.8,> 10,> 50,0.959,> 50,> 10
CCC(=O)Nc1cc2c(Oc3ccc(NC(=O)n4c(=O)c(-c5ccccc5)c(C)n4C)cc3F)cccc2cc1OC,1.06,> 10,22.2,0.00102,8.42,> 10
CCCC(=O)Nc1cc2c(Oc3ccc(NC(=O)CCCc4ccc(C)cc4)cc3F)ncnc2cc1OC,28.9,> 10,14.2,0.678,14,> 10
CCC(=O)Nc1cc2c(Oc3ccc(NC(=O)NCCc4csc(Br)c4)cc3F)ncnc2cc1OC,4.97,> 10,11.1,0.247,8.42,> 10
COc1cc2ncnc(Oc3ccc(NC(=O)CCCc4ccsc4)cc3F)c2cc1NC(=O)CCC(C)C,> 50,> 10,> 50,5.55,13,> 10
CCCC(=O)Nc1cc2c(Oc3ccc(NC(=O)CCCc4ccc(OC)cc4)cc3F)ncnc2cc1OC,> 50,7.64,16.2,0.607,7.74,8.96
C/C=C/C(=O)Nc1cc2c(Oc3ccc(NC(=O)CCCc4ccc(OC)cc4)cc3F)ncnc2cc1OC,8.17,> 10,> 50,0.493,6.43,> 10
CCC(=O)Nc1cc2c(Oc3ccc(NC(=O)CCCc4ccc(C)cc4)cc3F)ncnc2cc1OC,7.84,8.43,19.1,1.18,3.29,> 10
CCC(=O)Nc1cc2c(Oc3ccc(NC(=O)CCCc4ccc(OC)cc4)cc3F)ncnc2cc1OC,9.28,> 10,7.05,0.273,2.87,> 10
CCC(=O)Nc1cc2c(Oc3ccc(NC(=O)CCCc4ccccc4)cc3F)ncnc2cc1OC,2.6,1.44,3.98,0.444,7.03,2.27
CCCCC(=O)Nc1cc2c(Oc3ccc(NC(=O)CCCc4ccccc4)cc3F)ncnc2cc1OC,8.84,> 10,8.39,0.605,7.15,> 10
C=CC(=O)Nc1cc2c(Oc3ccc(NC(=O)CCCc4ccccc4)cc3F)ncnc2cc1OC,2.46,0.387,1.34,0.658,2.25,0.497
CCCCC(=O)Nc1cc2c(Oc3ccc(NC(=O)CCCc4ccc(OC)cc4)cc3F)ncnc2cc1OC,> 50,> 10,43.4,0.824,29.8,> 10
CCC(=O)Nc1cc2c(Oc3ccc(NC(=O)CCCc4ccc(F)cc4)cc3F)ncnc2cc1OC,3.1,6.87,1.31,0.354,3.68,5.31
CCC(=O)Nc1cc2c(Oc3ccc(NC(=O)c4c(-c5c(Cl)cccc5Cl)noc4C)cc3F)cccc2cc1OC,5.22,> 10,4.91,3.48,7.95,> 10
